What was measured:
Mus musculus [1] = assay: Antagonism of apomorphine-induced climbing in mice when administered intraperitoneally 30 min prior to apomorphine (1 mg/kg); conditions: ip
Rattus norvegicus [2] = assay: Suppression of conditioned avoidance behavior in rats when administered perorally 60 min before measurement; type: functional; conditions: po
D(2) dopamine receptor = D(2) dopamine receptor (Rattus norvegicus, UniProt P61169); assay: Ability to inhibit the [3H]spiperone binding to striatum Dopamine receptor D2 was determined in rat; type: tissue-based
D(2) dopamine receptor, sequence (P61169 whole entry): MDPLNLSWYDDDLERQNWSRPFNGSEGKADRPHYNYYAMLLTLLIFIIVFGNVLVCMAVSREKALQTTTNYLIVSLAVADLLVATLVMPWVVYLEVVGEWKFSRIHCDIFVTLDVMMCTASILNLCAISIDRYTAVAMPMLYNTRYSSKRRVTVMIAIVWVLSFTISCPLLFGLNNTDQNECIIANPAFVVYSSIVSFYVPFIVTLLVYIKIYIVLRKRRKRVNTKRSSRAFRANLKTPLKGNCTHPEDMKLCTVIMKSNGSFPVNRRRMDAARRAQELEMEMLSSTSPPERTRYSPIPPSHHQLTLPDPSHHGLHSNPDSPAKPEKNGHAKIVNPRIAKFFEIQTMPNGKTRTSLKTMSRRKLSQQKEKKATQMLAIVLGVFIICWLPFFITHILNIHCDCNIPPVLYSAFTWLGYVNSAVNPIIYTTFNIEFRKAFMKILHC

Mus musculus [3] = assay: Antagonism of apomorphine-induced climbing in mice when administered perorally 60 min prior to apomorphine (1 mg/kg); type: functional; conditions: po
[4] = molecular target: T1, Adrenergic receptor alpha-1 (Rattus norvegicus, UniProt P15823+P23944+P43140); assay: Ability to inhibit [3H]WB-4101 binding to alpha-1 adrenergic receptor was determined in rat
T1 sequence (P15823 whole entry): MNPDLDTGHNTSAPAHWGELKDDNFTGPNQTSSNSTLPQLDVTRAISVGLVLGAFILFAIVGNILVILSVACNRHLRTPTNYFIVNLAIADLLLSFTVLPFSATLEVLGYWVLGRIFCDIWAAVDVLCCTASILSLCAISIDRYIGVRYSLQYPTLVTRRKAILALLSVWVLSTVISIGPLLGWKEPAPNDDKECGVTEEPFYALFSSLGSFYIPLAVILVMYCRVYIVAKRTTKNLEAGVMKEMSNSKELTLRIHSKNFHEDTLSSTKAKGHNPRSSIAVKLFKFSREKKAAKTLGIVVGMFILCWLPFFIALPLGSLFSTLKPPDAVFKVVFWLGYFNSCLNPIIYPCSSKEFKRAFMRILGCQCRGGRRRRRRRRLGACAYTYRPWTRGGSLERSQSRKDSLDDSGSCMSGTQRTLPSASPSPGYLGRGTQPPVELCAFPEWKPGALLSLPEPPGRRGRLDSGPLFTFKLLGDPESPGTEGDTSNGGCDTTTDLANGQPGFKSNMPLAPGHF
T1 sequence (P23944 whole entry): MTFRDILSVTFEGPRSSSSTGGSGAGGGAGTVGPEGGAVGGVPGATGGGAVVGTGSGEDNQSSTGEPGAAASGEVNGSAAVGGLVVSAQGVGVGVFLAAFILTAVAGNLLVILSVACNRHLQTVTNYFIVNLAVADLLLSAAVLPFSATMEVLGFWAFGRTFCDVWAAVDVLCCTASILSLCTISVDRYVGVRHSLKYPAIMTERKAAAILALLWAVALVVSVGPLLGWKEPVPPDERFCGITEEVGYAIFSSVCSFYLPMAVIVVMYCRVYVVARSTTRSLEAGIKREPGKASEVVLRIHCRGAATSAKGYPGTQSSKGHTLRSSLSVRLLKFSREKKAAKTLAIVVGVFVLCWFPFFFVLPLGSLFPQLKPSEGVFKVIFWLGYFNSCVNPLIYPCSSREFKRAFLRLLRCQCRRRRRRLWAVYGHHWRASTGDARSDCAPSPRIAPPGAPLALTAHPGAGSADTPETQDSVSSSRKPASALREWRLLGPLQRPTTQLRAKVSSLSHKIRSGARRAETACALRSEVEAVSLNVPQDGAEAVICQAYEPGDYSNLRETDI
T1 sequence (P43140 whole entry): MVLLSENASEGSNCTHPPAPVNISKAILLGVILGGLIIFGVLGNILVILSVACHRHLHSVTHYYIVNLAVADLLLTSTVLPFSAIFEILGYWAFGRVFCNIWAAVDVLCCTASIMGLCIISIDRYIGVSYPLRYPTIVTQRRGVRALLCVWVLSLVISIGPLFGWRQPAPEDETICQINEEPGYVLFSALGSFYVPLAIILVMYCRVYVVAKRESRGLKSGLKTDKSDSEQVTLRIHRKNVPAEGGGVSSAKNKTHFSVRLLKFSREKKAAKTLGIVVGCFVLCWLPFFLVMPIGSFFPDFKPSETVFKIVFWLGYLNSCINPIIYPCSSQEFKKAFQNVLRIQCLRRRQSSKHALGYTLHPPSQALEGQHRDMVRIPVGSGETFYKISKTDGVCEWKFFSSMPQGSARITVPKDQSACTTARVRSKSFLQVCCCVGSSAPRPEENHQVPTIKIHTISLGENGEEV

[5] = molecular target: Serotonin 2 (5-HT2) receptor (Rattus norvegicus, UniProt P30994+P08909+P14842); assay: Ability to inhibit [3H]spiperone binding to 5-hydroxytryptamine 2 receptor determined in rat
Rattus norvegicus [6] = assay: Suppression of conditioned avoidance behavior in rats when administered intraperitoneally 30 min before measurement; conditions: ip
Rattus norvegicus [7] = assay: Induction of catalepsy in rats when administered intraperitoneally 4 hr prior to measurement to groups of 9 animals. value is based on at least three dose levels(40% of animals showed catalepsy); type: functional; conditions: ip

SMILES	Ki (D(2) dopamine receptor)	Ki [4]	Ki [5]	ED50 (Mus musculus [1])	ED50 (Rattus norvegicus [2])	ED50 (Mus musculus [3])	ED50 (Rattus norvegicus [6])	ED50 (Rattus norvegicus [7])
COc1ccccc1N1CCN(CCNC(=O)c2ccc(F)cc2)CC1	–	9 nM	700 nM	0.4 mg/kg	30 mg/kg	15 mg/kg	0.74 mg/kg	> 7.4 mg/kg
OC1(c2ccc(Cl)cc2)CCN(Cc2ccc(-c3ccc(F)cc3)[nH]2)CC1	1100 nM	1600 nM	9300 nM	25 mg/kg	> 50 mg/kg	51 mg/kg	> 20 mg/kg	–
O=C(NCCN1CCC(O)(c2ccc(Cl)cc2)CC1)c1ccc(F)cc1	480 nM	250 nM	–	9 mg/kg	> 50 mg/kg	20 mg/kg	–	–
CCS(=O)(=O)c1ccc(OC)c(-c2ccc(CN3CCC(O)(c4ccc(Cl)cc4)CC3)[nH]2)c1	150 nM	–	–	> 20 mg/kg	–	> 100 mg/kg	–	–
O=C(CCCN1CCC(O)(c2ccc(Cl)cc2)CC1)c1ccc(F)cc1 [HALOPERIDOL]	–	–	–	0.08 mg/kg	0.8 mg/kg	–	0.45 mg/kg	2 mg/kg
CCN1CCC[C@H]1CNC(=O)c1cc(S(N)(=O)=O)ccc1OC [LEVOSULPIRIDE]	–	15000 nM	–	> 21 mg/kg	> 220 mg/kg	195 mg/kg	> 100 mg/kg	–

Now from value to compound, other results behind:

Ki (D(2) dopamine receptor)	Ki [4]	Ki [5]	SMILES	ED50 (Mus musculus [1])	ED50 (Rattus norvegicus [2])	ED50 (Mus musculus [3])	ED50 (Rattus norvegicus [6])	ED50 (Rattus norvegicus [7])
29 nM	–	–	CCN1CCCC1c1ccc(-c2cc(S(=O)(=O)CC)ccc2OC)[nH]1 (configuration not stated)	4.7 mg/kg	35 mg/kg	11.4 mg/kg	–	–
9.3 nM	1100 nM	54000 nM	CCN1CCC[C@H]1CNC(=O)c1cc(S(=O)(=O)CC)ccc1OC	> 10 mg/kg	70 mg/kg	36 mg/kg	–	–
0.91 nM	57 nM	310 nM	COc1ccccc1N1CCN(Cc2ccc(-c3ccc(F)cc3)[nH]2)CC1	0.2 mg/kg	8.5 mg/kg	0.9 mg/kg	2.3 mg/kg	> 24 mg/kg
7.3 nM	–	–	CCS(=O)(=O)c1ccc(OC)c(-c2ccc(CN3CCN(c4ccccc4OC)CC3)[nH]2)c1	> 20 mg/kg	> 50 mg/kg	35 mg/kg	> 20 mg/kg	–
2.9 nM	0.87 nM	52 nM	COc1ccccc1N1CCN(CCCC(=O)c2ccc(F)cc2)CC1 [FLUANISONE]	0.4 mg/kg	> 50 mg/kg	25 mg/kg	2.2 mg/kg	≥ 22 mg/kg

— ChEMBL document CHEMBL1123646, “2-Phenylpyrroles as conformationally restricted benzamide analogues. A new class of potential antipsychotics. 1” (J Med Chem, 1987)
